According to patent publication US9950004B2, “Treatment and prevention of learning and memory disorders” (priority 2012, dated 2018):

Tests used:
[1] = test system: micro-capillary blood flow to skin; experiment: Laser Doppler study, closed Hilltop chamber on forearm, three human female subjects (Example 6); assay type: in vivo; settings: 1/10% in alcohol applied to the skin
Source text: The formulation used in these studies contained nitric oxide dispersed in a lipid matrix. […] Nitric oxide is a very rapid acting molecule, and these studies used a system that employed laser Doppler with a covered chamber. The formulation was placed into the chamber and then attached to the skin by an adhesive layer on the covering. This provided a stable measuring device as determined by multiple normal evaluations of the capillary blood flow without treatment of nitric oxide.
A known positive control, methyl nicotinate, was applied to the skin at a concentration of 1/10% in alcohol. […] The vascular dynamics are such that when the blood vessels dilate physical parameters follow Bernoulli's law. […] The laser Doppler device accurately measured these parameters.
In these studies, the participants were healthy females aged 30 to 55 years. They were in good health as determined by the medical history and were not taking any prescription medications. All study participants read and signed the informed consent statement prior to any study procedures being performed. […]
A Moor Instruments DRT4 Laser Doppler Blood Flow Monitor (Devon, England) was used in these studies. The laser Doppler technique measured blood flow in the microcapillaries of the skin that are close to the skin surface and the blood flow in underlying arterioles and venules that help to regulate skin temperature. […]

capillary circulation = experiment: Laser Doppler study of creams in five human subjects (second Example 7); assay type: in vivo; settings: positive control formulation containing 0.1% methyl nicotinate
Source text: This example illustrates delivery of nitric oxide formulations to five human subjects, using procedures and formulations similar to those discussed in Example 6. Each person served as their own control for the testing. A Moor Instruments Laser Doppler was used to determine circulation. […] The formulations used produce positive, almost immediate results when applied to the skin which, in these studies, was manifested by vasodilatation of the cutaneous vascular system.
For each subject, the following creams were applied: a negative control formulation (containing no NO), 0.010 gram of a 10,000 ppm NO formulation, 0.020 gram of a 10,000 ppm NO formulation, and a positive control formulation containing 0.1% methyl nicotinate. The formulations were prepared using procedures similar to those discussed in Example 1.

With `COC(=O)c1cccnc1` [methyl nicotinate] the “vasodilator response (positive control)” value [1] was “rapid response typical of the vasodilator” and the vasodilatation (capillary circulation) was “vasodilatation was observed”.
